Test results as given in patent US12077503B2, “Substituted cyclic amides and their use as herbicides” (FMC CORPORATION, priority 2015, dated 2024).
Like-named read-outs stand apart in the source and are kept apart here.

Experiments:
Test in all cases: Test A postemergence
Format in all cases: in vivo
corn (Zea mays) = conditions: Zea mays, post-emergence, 240 h; for plant injury at 125 g/ha / Corn plant response rating (crop injury, 0 = no effect, 100 = complete kill) at 125 g/ha: 125 g ai/ha; for Corn plant response rating (crop injury, 0 = no effect, 100 = complete kill) at 500 g/ha: visual injury, approx. 10 d; for Corn plant response rating (crop injury, 0 = no effect, 100 = complete kill) at 500 g/ha / Corn plant response rating (crop injury, 0 = no effect, 100 = complete kill) at 125 g/ha: 0 to 100 scale (0 no effect, 100 complete control); for Corn plant response rating (crop injury, 0 = no effect, 100 = complete kill) at 125 g/ha: visual injury after approximately 10 d
In short: (§1)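 Visual injury, scored on a 0–100 scale relative to untreated controls, was recorded about 10 d after application. Treatments were a preemergence soil spray over planted seeds or a postemergence spray on plants at the one- to two-leaf stage, 2 to 10 cm tall, all in loam soil–sand blend in the greenhouse.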

[1] = tested on: ragweed (common ragweed, Ambrosia elatior); conditions: Ambrosia artemisiifolia, post-emergence, 240 h; for pest or weed control at 125 g/ha: 125 g ai/ha; for pest or weed control at 500 g/ha: 500 g ai/ha
In short: as §1

Kochia (Kochia scoparia) = conditions: Bassia scoparia, post-emergence, 240 h; for pest or weed control at 125 g/ha: 125 g ai/ha; for pest or weed control at 500 g/ha: 500 g ai/ha
In short: as §1

[2] = tested on: Galium (catchweed bedstraw, Galium aparine); conditions: Galium, post-emergence, 240 h; for pest or weed control at 125 g/ha: 125 g ai/ha; for pest or weed control at 500 g/ha: 500 g ai/ha
In short: as §1

[3] = tested on: barnyardgrass (Echinochloa crus-galli); conditions: Echinochloa crus-galli, post-emergence, 240 h; for pest or weed control at 125 g/ha: 125 g ai/ha; for pest or weed control at 500 g/ha: 500 g ai/ha
In short: as §1

[4] = Postemergence, visual rating about 10 d after treatment, read-out: Corn plant response rating (0 to 100 scale)
[5] = Postemergence, visual rating about 10 d after treatment, read-out: Ragweed plant response rating (0 to 100 scale)
[6] = Postemergence, visual injury, 0 to 100 scale (0 no effect, 100 complete control), approx. 10 d, read-out: Plant response rating, Ragweed
[7] = Postemergence, visual rating about 10 d after treatment, read-out: Kochia plant response rating (0 to 100 scale)
[8] = Postemergence, visual injury, 0 to 100 scale (0 no effect, 100 complete control), approx. 10 d, read-out: Plant response rating, Kochia
[9] = Postemergence, visual rating about 10 d after treatment, read-out: Galium plant response rating (0 to 100 scale)
[10] = Postemergence, visual injury, 0 to 100 scale (0 no effect, 100 complete control), approx. 10 d, read-out: Plant response rating, Galium
[11] = Postemergence, visual rating about 10 d after treatment, read-out: Barnyardgrass plant response rating (0 to 100 scale, 0 no effect, 100 complete control)
[12] = Postemergence, visual injury, 0 to 100 scale (0 no effect, 100 complete control), approx. 10 d, read-out: Plant response rating, Barnyardgrass
[13] = postemergence, visual injury after approximately 10 d, 0 to 100 scale (0 no effect, 100 complete control), read-out: Plant response rating, Ragweed
[14] = postemergence, visual injury after approximately 10 d, 0 to 100 scale (0 no effect, 100 complete control), read-out: Plant response rating, Kochia
[15] = postemergence, visual injury after approximately 10 d, 0 to 100 scale (0 no effect, 100 complete control), read-out: Plant response rating, Galium
[16] = postemergence, visual injury after approximately 10 d, 0 to 100 scale (0 no effect, 100 complete control), read-out: Plant response rating, Barnyardgrass

CN1C[C@H](c2cc(F)c(C(F)(F)F)c(F)c2)[C@@H](C(=O)Nc2ccccc2F)C1=O [Compound 899]
plant injury at 125 g/ha (corn (Zea mays); postemergence, visual injury rating after approximately 10 d, read-out: Corn plant response rating (0 to 100 scale, 0 no effect, 100 complete control)): 40%
pest or weed control at 125 g/ha ([1]; postemergence, visual injury rating after approximately 10 d, read-out: Ragweed plant response rating (0 to 100 scale, 0 no effect, 100 complete control)): 20%
pest or weed control at 125 g/ha (Kochia (Kochia scoparia); postemergence, visual injury rating after approximately 10 d, read-out: Kochia plant response rating (0 to 100 scale, 0 no effect, 100 complete control)): 0%
pest or weed control at 125 g/ha ([2]; postemergence, visual injury rating after approximately 10 d, read-out: Galium plant response rating (0 to 100 scale, 0 no effect, 100 complete control)): 0%
pest or weed control at 125 g/ha ([3]; postemergence, visual injury rating after approximately 10 d, read-out: Barnyardgrass plant response rating (0 to 100 scale, 0 no effect, 100 complete control)): 80%

CN1C[C@H](c2ccc(C#N)cc2)[C@@H](C(=O)Nc2ccc(F)c(F)c2F)C1=O [Compound 1229]
plant injury at 125 g/ha (corn (Zea mays); postemergence, visual injury vs untreated controls after approx. 10 d, 0 = no effect, 100 = complete control, read-out: Corn plant response rating (0 to 100 scale)): 0%
plant injury at 500 g/ha (corn (Zea mays); 500 g ai/ha, postemergence, 0 to 100 scale, 0 is no effect, 100 is complete control, read-out: Corn plant response rating): 0%
pest or weed control at 125 g/ha ([1]; postemergence, visual injury vs untreated controls after approx. 10 d, 0 = no effect, 100 = complete control, read-out: Ragweed plant response rating (0 to 100 scale)): 0%
pest or weed control at 500 g/ha ([1]; postemergence, 0 to 100 scale, 0 is no effect, 100 is complete control, read-out: Ragweed plant response rating): 0%
pest or weed control at 125 g/ha (Kochia (Kochia scoparia); postemergence, visual injury vs untreated controls after approx. 10 d, 0 = no effect, 100 = complete control, read-out: Kochia plant response rating (0 to 100 scale)): 70%
pest or weed control at 500 g/ha (Kochia (Kochia scoparia); postemergence, 0 to 100 scale, 0 is no effect, 100 is complete control, read-out: Kochia plant response rating): 80%
pest or weed control at 125 g/ha ([2]; postemergence, visual injury vs untreated controls after approx. 10 d, 0 = no effect, 100 = complete control, read-out: Galium plant response rating (0 to 100 scale)): 40%
pest or weed control at 500 g/ha ([2]; postemergence, 0 to 100 scale, 0 is no effect, 100 is complete control, read-out: Galium plant response rating): 50%
pest or weed control at 125 g/ha ([3]; postemergence, visual injury vs untreated controls after approx. 10 d, 0 = no effect, 100 = complete control, read-out: Barnyardgrass plant response rating (0 to 100 scale)): 100%
pest or weed control at 500 g/ha ([3]; postemergence, 0 to 100 scale, 0 is no effect, 100 is complete control, read-out: Barnyardgrass plant response rating): 100%

CN1C[C@H](c2ccc(C(F)(F)F)cc2)[C@@H](C(=O)Nc2ccccc2C#N)C1=O [Compound 1379]
plant injury at 125 g/ha (corn (Zea mays); [4]): 70%
Corn plant response rating (crop injury, 0 = no effect, 100 = complete kill) at 500 g/ha (corn (Zea mays); Postemergence, 500 g ai/ha): 70%
pest or weed control at 125 g/ha [1, 5]: 30%
pest or weed control at 500 g/ha [1, 6]: 60%
pest or weed control at 125 g/ha (Kochia (Kochia scoparia); [7]): 30%
pest or weed control at 500 g/ha (Kochia (Kochia scoparia); [8]): 60%
pest or weed control at 125 g/ha [2, 9]: 40%
pest or weed control at 500 g/ha [2, 10]: 60%
pest or weed control at 125 g/ha [3, 11]: 100%
pest or weed control at 500 g/ha [3, 12]: 100%

O=C1NC[C@H](c2ccc(OC(F)F)cc2)[C@H]1C(=O)Nc1ccccc1F [Compound 778]
Corn plant response rating (crop injury, 0 = no effect, 100 = complete kill) at 125 g/ha (corn (Zea mays); postemergence): 0%
pest or weed control at 125 g/ha [1, 13]: 0%
pest or weed control at 125 g/ha (Kochia (Kochia scoparia); [14]): 60%
pest or weed control at 125 g/ha [2, 15]: 60%
pest or weed control at 125 g/ha [3, 16]: 80%

CCc1ccc([C@H]2CNC(=S)[C@@H]2C(=O)Nc2ccccc2SC)cc1 [Compound 763]
Corn plant response rating (crop injury, 0 = no effect, 100 = complete kill) at 125 g/ha (corn (Zea mays); postemergence): 0%
pest or weed control at 125 g/ha [1, 13]: 0%
pest or weed control at 125 g/ha (Kochia (Kochia scoparia); [14]): 0%
pest or weed control at 125 g/ha [2, 15]: 0%
pest or weed control at 125 g/ha [3, 16]: 0%

Cc1cc(F)cc([C@H]2CNC(=O)[C@@H]2C(=O)Nc2cccc(F)c2C)c1 [Compound 1308]
plant injury at 125 g/ha (corn (Zea mays); [4]): 20%
Corn plant response rating (crop injury, 0 = no effect, 100 = complete kill) at 500 g/ha (corn (Zea mays); Postemergence, 500 g ai/ha): 80%
pest or weed control at 125 g/ha [1, 5]: 0%
pest or weed control at 500 g/ha [1, 6]: 20%
pest or weed control at 125 g/ha (Kochia (Kochia scoparia); [7]): 0%
pest or weed control at 500 g/ha (Kochia (Kochia scoparia); [8]): 0%
pest or weed control at 125 g/ha [2, 9]: 30%
pest or weed control at 500 g/ha [2, 10]: 50%
pest or weed control at 125 g/ha [3, 11]: 80%
pest or weed control at 500 g/ha [3, 12]: 80%

C=CCN1C[C@H](c2ccc(OC)c(F)c2)[C@@H](C(=O)Nc2ccccc2C(F)(F)F)C1=O [Compound 723]
Corn plant response rating (crop injury, 0 = no effect, 100 = complete kill) at 125 g/ha (corn (Zea mays); postemergence): 0%
pest or weed control at 125 g/ha [1, 13]: 0%
pest or weed control at 125 g/ha (Kochia (Kochia scoparia); [14]): 0%
pest or weed control at 125 g/ha [2, 15]: 0%
pest or weed control at 125 g/ha [3, 16]: 0%

CC(F)(F)c1cccc([C@H]2CNC(=O)[C@@H]2C(=O)Nc2ccc(F)cc2F)c1 [Compound 781]
Corn plant response rating (crop injury, 0 = no effect, 100 = complete kill) at 125 g/ha (corn (Zea mays); postemergence): 60%
pest or weed control at 125 g/ha [1, 13]: 0%
pest or weed control at 125 g/ha (Kochia (Kochia scoparia); [14]): 0%
pest or weed control at 125 g/ha [2, 15]: 60%
pest or weed control at 125 g/ha [3, 16]: 90%

CCc1cc(CC)cc([C@H]2CN(C)C(=O)[C@@H]2C(=O)Nc2ccccc2C(F)(F)F)c1 [Compound 737]
Corn plant response rating (crop injury, 0 = no effect, 100 = complete kill) at 125 g/ha (corn (Zea mays); postemergence): 40%
pest or weed control at 125 g/ha [1, 13]: 0%
pest or weed control at 125 g/ha (Kochia (Kochia scoparia); [14]): 0%
pest or weed control at 125 g/ha [2, 15]: 30%
pest or weed control at 125 g/ha [3, 16]: 40%

Cc1cc(F)cc([C@H]2CNC(=O)[C@@H]2C(=O)Nc2ccccc2S(C)(=O)=O)c1 [Compound 1307]
plant injury at 125 g/ha (corn (Zea mays); [4]): 0%
Corn plant response rating (crop injury, 0 = no effect, 100 = complete kill) at 500 g/ha (corn (Zea mays); Postemergence, 500 g ai/ha): 0%
pest or weed control at 125 g/ha [1, 5]: 0%
pest or weed control at 500 g/ha [1, 6]: 0%
pest or weed control at 125 g/ha (Kochia (Kochia scoparia); [7]): 0%
pest or weed control at 500 g/ha (Kochia (Kochia scoparia); [8]): 40%
pest or weed control at 125 g/ha [2, 9]: 30%
pest or weed control at 500 g/ha [2, 10]: 40%
pest or weed control at 125 g/ha [3, 11]: 40%
pest or weed control at 500 g/ha [3, 12]: 90%
